# Experimental data reported in patent US10800816B2 (Baxalta GmbH, priority 2012, dated 2020).
# Key:
# TFPI = assay: IC50 ELISA | Mean IC50 [nM]
# Text: Table printed on a drawing sheet, FIGURE 78Z
# Head of the field: IC50 ELISA | Mean IC50 [nM]
# First copying reader's note: Continued table: the first body row (45.67) belongs to a compound on the preceding sheet, the last row probably continues on the next sheet, and cells with several values list single replicates.
# [1] = Pharmacokinetics in C57Bl6 mice; type: in vivo, mouse; conditions: 1 mg/kg peptide content, 1 mg/kg; for Bioavailability [%] (s.c.): s.c. AUC vs i.v. AUC
compound,measurement,setting,value
CCN1C(=O)CC(SC[C@H](NC(=O)[C@H]2CCCN2C(=O)[C@H](CCCCN)NC(=O)[C@H](CO)NC(=O)[C@H](CCC(N)=O)NC(=O)[C@H](Cc2ccccc2)NC(C)=O)C(=O)N[C@H](C(=O)N[C@@H](Cc2c[nH]cn2)C(=O)N[C@H](C(=O)N[C@@H](CC(=O)O)C(=O)NCC(=O)N[C@@H](Cc2ccc(O)cc2)C(=O)N[C@@H](Cc2ccccc2)C(=O)N[C@@H](CCC(=O)O)C(=O)N[C@@H](CCCNC(=N)N)C(=O)N[C@@H](CC(C)C)C(=O)NC(C)(C)C(=O)N[C@@H](C)C(=O)N[C@@H](CCCCN)C(=O)N[C@@H](CC(C)C)C(N)=O)C(C)C)C(C)C)C1=O (stereo partly shown) [JBT00002397],24 h Human Plasma Stability | Mean Remaining [%],FIGURE 78O,10.60%
"CCN1C(=O)CC(SC[C@H](NC(=O)[C@@H](NC(=O)[C@H](Cc2c[nH]cn2)NC(=O)[C@@H](NC(=O)[C@H](CC(N)=O)NC(=O)[C@H]2CCCN2C(=O)[C@H](CCCCN)NC(=O)[C@H](CO)NC(=O)[C@H](CCC(N)=O)NC(=O)[C@H](Cc2ccccc2)NC(C)=O)C(C)C)C(C)C)C(=O)NCC(=O)N[C@@H](Cc2ccc(O)cc2)C(=O)N[C@@H](Cc2ccccc2)C(=O)N[C@@H](CCC(=O)O)C(=O)N[C@@H](CCCNC(=N)N)C(=O)N[C@@H](CC(C)C)C(=O)NC(C)(C)C(=O)N[C@@H](C)C(=O)N[C@@H](CCCCN)C(=O)N[C@@H](CC(C)C)C(N)=O)C1=O (stereo partly shown) [JBT00002398, Ac-FQSKpNVHV-C(NEM)-GYFERL-Aib-AKL-NH2]",24 h Human Plasma Stability | Mean Remaining [%],FIGURE 78O,39.05%
same,24 h Mouse Plasma Stability | Mean Remaining [%],FIGURE 78O,21.60%
CCN1C(=O)CC(SC[C@H](NC(=O)[C@H](Cc2ccccc2)NC(=O)[C@H](Cc2ccc(O)cc2)NC(=O)CNC(=O)[C@H](CC(=O)O)NC(=O)[C@@H](NC(=O)[C@H](Cc2c[nH]cn2)NC(=O)[C@@H](NC(=O)[C@H](CC(N)=O)NC(=O)[C@H]2CCCN2C(=O)[C@H](CCCCN)NC(=O)[C@H](CO)NC(=O)[C@H](CCC(N)=O)NC(=O)[C@H](Cc2ccccc2)NC(C)=O)C(C)C)C(C)C)C(=O)N[C@@H](CCCNC(=N)N)C(=O)N[C@@H](CC(C)C)C(=O)NC(C)(C)C(=O)N[C@@H](C)C(=O)N[C@@H](CCCCN)C(=O)N[C@@H](CC(C)C)C(N)=O)C1=O (stereo partly shown) [JBT00002399],24 h Human Plasma Stability | Mean Remaining [%],FIGURE 78O,10.70%
CCSC1CC(=O)N(CCC(=O)NCCCOCCOCCOCCCNC(=O)CCC(=O)NCCCC[C@H](NC(=O)[C@H](CC(C)C)NC(=O)[C@H](CCCCN)NC(=O)[C@H](C)NC(=O)C(C)(C)NC(=O)[C@H](CC(C)C)NC(=O)[C@H](CCCNC(=N)N)NC(=O)[C@H](CCC(=O)O)NC(=O)[C@H](Cc2ccccc2)NC(=O)[C@H](Cc2ccc(O)cc2)NC(=O)CNC(=O)[C@H](CC(=O)O)NC(=O)[C@@H](NC(=O)[C@H](Cc2c[nH]cn2)NC(=O)[C@@H](NC(=O)[C@H](CC(N)=O)NC(=O)[C@H]2CCCN2C(=O)[C@H](CCCCN)NC(=O)[C@H](CO)NC(=O)[C@H](CCC(N)=O)NC(=O)[C@H](Cc2ccccc2)NC(C)=O)C(C)C)C(C)C)C(N)=O)C1=O (stereo partly shown) [JBT00002400],24 h Human Plasma Stability | Mean Remaining [%],FIGURE 78O,60.00%
CC(C)C[C@@H]1NC(=O)[C@H](CCCCN)NC(=O)[C@H](C)NC(=O)C(C)(C)NC(=O)[C@H](CC(C)C)NC(=O)[C@H](CCCNC(=N)N)NC(=O)[C@H](CCC(=O)O)NC(=O)[C@H](Cc2ccccc2)NC(=O)[C@H](Cc2ccc(O)cc2)NC(=O)CNC(=O)[C@H](CC(=O)O)NC(=O)[C@H](C(C)C)NC(=O)[C@H](Cc2c[nH]cn2)NC(=O)[C@H](C(C)C)NC(=O)[C@H](CC(N)=O)NC(=O)[C@H]2CCCN2C(=O)[C@H](CCCCN)NC(=O)[C@H](CO)NC(=O)[C@H](CCC(N)=O)NC(=O)[C@H](Cc2ccccc2)NC(=O)CCOCCOCCOCCOCCOCCNC1=O [JBT00002405],24 h Human Plasma Stability | Mean Remaining [%],FIGURE 78P,55.90%
CC(C)C[C@@H]1NC(=O)[C@H](CCCCN)NC(=O)[C@H](C)NC(=O)C(C)(C)NC(=O)[C@H](CC(C)C)NC(=O)[C@H](CCCNC(=N)N)NC(=O)[C@H](CCC(=O)O)NC(=O)[C@H](Cc2ccccc2)NC(=O)[C@H](Cc2ccc(O)cc2)NC(=O)CNC(=O)[C@H](CC(=O)O)NC(=O)[C@H](C(C)C)NC(=O)[C@H](Cc2c[nH]cn2)NC(=O)[C@H](C(C)C)NC(=O)[C@H](CC(N)=O)NC(=O)[C@H]2CCCN2C(=O)[C@H](CCCCN)NC(=O)[C@H](CO)NC(=O)[C@H](CCC(N)=O)NC(=O)[C@H](Cc2ccccc2)NC(=O)CCOCCOCCOCCOCCNC1=O [JBT00002406],24 h Human Plasma Stability | Mean Remaining [%],FIGURE 78P,62.80%
same,24 h Mouse Plasma Stability | Mean Remaining [%],FIGURE 78P,38.10%
CC(C)C[C@@H]1NC(=O)[C@H](CCCCN)NC(=O)[C@H](C)NC(=O)C(C)(C)NC(=O)[C@H](CC(C)C)NC(=O)[C@H](CCCNC(=N)N)NC(=O)[C@H](CCC(=O)O)NC(=O)[C@H](Cc2ccccc2)NC(=O)[C@H](Cc2ccc(O)cc2)NC(=O)CNC(=O)[C@H](CC(=O)O)NC(=O)[C@H](C(C)C)NC(=O)[C@H](Cc2c[nH]cn2)NC(=O)[C@H](C(C)C)NC(=O)[C@H](CC(N)=O)NC(=O)[C@H]2CCCN2C(=O)[C@H](CCCCN)NC(=O)[C@H](CO)NC(=O)[C@H](CCC(N)=O)NC(=O)[C@H](Cc2ccccc2)NC(=O)CCOCCOCCOCCNC1=O [JBT00002407],24 h Human Plasma Stability | Mean Remaining [%],FIGURE 78P,45.20%
CC(C)C[C@@H]1NC(=O)[C@H](CCCCN)NC(=O)[C@H](C)NC(=O)C(C)(C)NC(=O)[C@H](CC(C)C)NC(=O)[C@H](CCCNC(=N)N)NC(=O)[C@H](CCC(=O)O)NC(=O)[C@H](Cc2ccccc2)NC(=O)[C@H](Cc2ccc(O)cc2)NC(=O)CNC(=O)[C@H](CC(=O)O)NC(=O)[C@H](C(C)C)NC(=O)[C@H](Cc2c[nH]cn2)NC(=O)[C@H](C(C)C)NC(=O)[C@H](CC(N)=O)NC(=O)[C@H]2CCCN2C(=O)[C@H](CCCCN)NC(=O)[C@H](CO)NC(=O)[C@H](CCC(N)=O)NC(=O)[C@H](Cc2ccccc2)NC(=O)COCCOCCNC1=O [JBT00002408],24 h Human Plasma Stability | Mean Remaining [%],FIGURE 78P,61.60%
same,24 h Mouse Plasma Stability | Mean Remaining [%],FIGURE 78P,39.40%
(Hex-FQSKp-Cys(Acm)-VH-Tle-DaYFERL-Aib-AKLC- NH2)2-M2TriO [JBT00002533],IC50,TFPI,0.0031 µM
Ac-FQSKp-C(ME-400MA)-VHVDGYFERL-Aib-AKL-NH2 [JBT00002402],24 h Human Plasma Stability | Mean Remaining [%],FIGURE 78O,75.30%
same,24 h Mouse Plasma Stability | Mean Remaining [%],FIGURE 78O,99.70%
Ac-FQSKpNVHV-C(ME-400MA)-GYFERL-Aib-AKL-NH2 [JBT00002403],24 h Human Plasma Stability | Mean Remaining [%],FIGURE 78O,96.70%
same,24 h Mouse Plasma Stability | Mean Remaining [%],FIGURE 78O,92.50%
Ac-FQSKpNVHVDGYF-C(ME-400MA)-RL-Aib-AKL-NH2 [JBT00002404],24 h Mouse Plasma Stability | Mean Remaining [%],FIGURE 78P,93.20%
"Ac-FQSKpNVHVDGYFERL-Aib-AKLC(PEG)-NH2 [JBT2325] (FQSKPNVHVDGYFERLXAKLC; acetyl, D-Pro, Aib, Cys-PEG 5.3 kD, amide; MOD_RES (1)..(1): N-terminal acetylation; MOD_RES (5)..(5): D-Pro; MOD_RES (17)..(17): Xaa is 2-amino-isobutyric acid; MOD_RES (21)..(21): Cys-PEG; MOD_RES (21)..(21): C-terminal amidation) [PEG 5.3 kD, linear maleimide PEG]",HL_λ_z [h] (intravenous),[1],0.16 h
same,Bioavailability [%] (s.c.),[1],58.2%
"Ac-FQSKpNVHVDGYFERL-Aib-AKLC(PEG)-NH2 [JBT2326] (FQSKPNVHVDGYFERLXAKLC; acetyl, D-Pro, Aib, Cys-PEG 12.1 kD, amide; MOD_RES (1)..(1): N-terminal acetylation; MOD_RES (5)..(5): D-Pro; MOD_RES (17)..(17): Xaa is 2-amino-isobutyric acid; MOD_RES (21)..(21): Cys-PEG; MOD_RES (21)..(21): C-terminal amidation)",HL_λ_z [h] (intravenous),[1],0.35 h
same,Bioavailability [%] (s.c.),[1],76.0%
"Ac-FQSKpNVHVDGYFERL-Aib-AKLC(PEG)-NH2 [JBT2327] (FQSKPNVHVDGYFERLXAKLC; acetyl, D-Pro, Aib, Cys-PEG 21.0 kD, amide; MOD_RES (1)..(1): N-terminal acetylation; MOD_RES (5)..(5): D-Pro; MOD_RES (17)..(17): Xaa is 2-amino-isobutyric acid; MOD_RES (21)..(21): Cys-PEG; MOD_RES (21)..(21): C-terminal amidation) [PEG 21.0 kD, linear maleimide PEG]",HL_λ_z [h] (intravenous),[1],4.2 h
same,Bioavailability [%] (s.c.),[1],89.7%
"Ac-FQSKpNVHVDGYFERL-Aib-AKLC(PEG)-NH2 [JBT2328] (FQSKPNVHVDGYFERLXAKLC; acetyl, D-Pro, Aib, Cys-PEG 29.1 kD, amide; MOD_RES (1)..(1): N-terminal acetylation; MOD_RES (5)..(5): D-Pro; MOD_RES (17)..(17): Xaa is 2-amino-isobutyric acid; MOD_RES (21)..(21): Cys-PEG; MOD_RES (21)..(21): C-terminal amidation) [PEG 29.1 kD, linear maleimide PEG]",HL_λ_z [h] (intravenous),[1],10.1 h
same,Bioavailability [%] (s.c.),[1],52.0%
Ac-FQSKpNVHVDGYFERL-Aib-AKLK(Ttds-Maleimid-HSA)- NH2 [JBT00002410],24 h Mouse Plasma Stability | Mean Remaining [%],FIGURE 78P,79.15%
Hex-FQSKp-Cys(Acm)-VH-Tle-DaYFERL-Aib-AK-OH [JBT00002543],IC50,TFPI,0.0711 µM
Hex-FQSKp-Cys(Acm)-VH-Tle-DaYFERL-Aib-AKL-Ttds- K(Ttds-Myr)--NH2 [JBT00002539],IC50,TFPI,0.0101 µM
Hex-FQSKp-Cys(Acm)-VH-Tle-DaYFERL-Aib-AKLC(ME- 400MA)-NH2 [JBT00002534],IC50,TFPI,0.0153 µM
Hex-FQSKp-Cys(Acm)-VH-Tle-DaYFERL-Aib-AKLK(Ttds- Ac)--NH2 [JBT00002540],IC50,TFPI,0.00399 µM
Hex-FQSKp-Cys(Acm)-VH-Tle-DaYFERL-Aib-AKLK(Ttds- gGlu-Myr)--NH2 [JBT00002541],IC50,TFPI,0.0243 µM
